# Key:
# [1] = molecular target: T1, human HSD17β13 (stable HEK293T cell line overexpressing human HSD17β13) (Homo sapiens, UniProt Q7Z5P4); assay: HSD17β13 inhibitor cell-based screening assay (conversion of estradiol-d2 to estrone-d2 by RF-MS); conditions: conversion of estradiol-d2 to estrone-d2 after 24 hours
# T1 construct: expressed in transfected cells
# T1 sequence (Q7Z5P4 20-300): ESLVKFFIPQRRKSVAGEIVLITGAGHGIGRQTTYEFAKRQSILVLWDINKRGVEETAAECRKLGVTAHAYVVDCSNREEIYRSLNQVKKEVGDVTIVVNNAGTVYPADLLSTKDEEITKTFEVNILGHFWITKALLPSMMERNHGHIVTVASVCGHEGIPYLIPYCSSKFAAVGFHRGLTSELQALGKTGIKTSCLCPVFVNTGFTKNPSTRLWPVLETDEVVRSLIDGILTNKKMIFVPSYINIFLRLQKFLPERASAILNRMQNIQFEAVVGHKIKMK
# Outline: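 Cellular IC50 is based on 24-h conversion of estradiol-d2 (5 μM final) to estrone-d2, measured by RF-MS in acetonitrile-precipitated supernatants. Assay uses human HSD17β13-overexpressing HEK293T cells (7.5E3/well, 1% charcoal/dextran FBS MEM), with compounds dosed as a 9-point 1:3 series to 10 μM final. ATPlite luminescence on overexpressing and parent lines measured viability.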
# [2] = molecular target: T2, Recombinant human 17β-HSD13 (Homo sapiens, UniProt Q7Z5P4); assay: 17β-HSD13 rapid-fire mass spectrometry assay (RF/MS assay); format: biochemical; conditions: inhibition of 17β-HSD13, RF/MS assay; HSD17B13 80 nM, LTB4 10 μM, NAD+ 0.5 mM, RT 3 h
# T2 construct: host or cells: Sf9 insect cells
# T2 sequence (Q7Z5P4 20-300): T1 sequence (Q7Z5P4 20-300)
# Excerpt: 17(3-HSD13 rapid-fire mass spectrometry assay (RF/MS assay). Recombinant human 17β-HSD13 was expressed and purified from sf9 cells at Charles River Labs (Saffron Walden, UK). Leukotriene B4 (Catalog #71160-24-2) and 12-oxoleukotriene B4 (Catalog #20140) were purchased from Cayman Chemicals (Ann Arbor, MI). NAD+ (Catalog #N8285), BSA (Catalog #A7030), DMSO (Catalog #D2650), and Tween-20 (Catalog #11332465001) were purchased from Sigma (St. Louis, MO). Formic acid (Catalog #28905) was from ThermoFisher Scientific and 384 deep well PP microplates (Catalog #784261) were from Greiner Bio-One. In a typical IC50 assay performed in a 384w PP microplate, test compounds (0-100 μM) were incubated with HSD17B13 (80 nM), LTB4 (10 μM), and NAD^+ (0.5 mM) in 10 μL assay buffer (20 mM Tris (pH 7.5), BSA (0.005%), and Tween-20 (0.01%)) at RT for 3 h. The assays were quenched by adding 20 μL of 0.15% aqueous formic acid and the plates were frozen at −80° C. RF/MS analysis was performed at PureHoney Technologies (Billerica, MA) on a RapidFire RF300 system (Agilent Technologies, Inc.) coupled to an API 4000 triple quadrupole mass spectrometer (Sciex) equipped with Agilent RapidFire cartridge type A (C4). The mobile phase was 0.09% formic acid and 0.01% trifluoracetic acid in water (Buffer A) and 0.09% formic acid and 0.01% trifluoracetic acid in 80% aqueous acetonitrile (Buffer B). The RapidFire method conditions were the following: 250 ms aspirate, 3000 ms load/desalt, 4000 ms elute, and 500 ms re-equilibrate. RF-MS/MS was performed in negative polarity (−4500 V), the source temperature was 650° C., and gas 1 and gas 2 settings for nitrogen were set to 50. The curtain gas and collision gas were also nitrogen and were set to 20 and 12, respectively. Leukotriene B4 (335.3) and 12-oxoLeukotriene B4 (333.3) SRM transitions were optimized with Discovery Quant software and extracted ion counts for these analytes were determined.
# Data Analysis. 17β-HSD13 enzyme activity was measured as percent conversion of extracted ion counts and normalized to high and low controls to determine percent residual activity at various concentrations of test compounds. Data was fitted to normalized activity (variable slope) versus concentration fit in GraphPad Prism 7 to determine IC50. All experiments were run in duplicates.
# By using the above method, the inhibition of 17β-HSD13 was evaluated for the compounds of Formula (I). IC50 ranges are as follows: A is <0.1 μM; B is 0.1 μM-1.0 μM; C is 1.0 μM-10 μm; and D is >10 μM.
SMILES,IC50 [1] [nM],IC50 [2] [nM]
O=c1c2c(nc(-c3c(C4CC4)cc(F)c(F)c3F)n1Cc1cnco1)sc1c(O)c(Cl)ccc12 [Example 147],< 100,< 100
"C=Cc1cccc2c1sc1nc(-c3ccc(OC)cc3C3CC3)n(Cc3cnco3)c(=O)c12 [Example 14, 2-(2-cyclopropyl-4-methoxyphenyl)-3-(oxazol-5-ylmethyl)-8-vinylbenzo[4,5]thieno[2,3-d]pyrimidin-4(3H)-one]",1000 to 100000,> 10000
"COc1ccc(-c2nc3sc4c(O)c(Cl)ccc4c3c(=O)n2Cc2sc(C)nc2C)c(C2CC2)c1 [Example 53, 7-chloro-2-(2-cyclopropyl-4-methoxyphenyl)-3-((2,4-dimethylthiazol-5-yl)methyl)-8-hydroxybenzo[4,5]thieno[2,3-d]pyrimidin-4(3H)-one]",< 100,
O=c1c2c(nc(-c3c(C4CC4)ccc(C(F)(F)F)c3F)n1Cc1cnco1)sc1c(O)c(Cl)ccc12 [Example 134],< 100,
C/C=C/c1cc2cn[nH]c2cc1-c1nc2sc3c(O)c(Cl)ccc3c2c(=O)n1Cc1cnco1 [Example 206],100 to 500,
Cn1ncc2cc(-c3nc4sc5c(O)c(Cl)ccc5c4c(=O)n3Cc3cnc(C(F)(F)F)nc3)c(C3CC3)cc21 [Example 182],< 100,
"Cc1cc(Cn2c(-c3cc(F)c(F)cc3C3CC3)nc3sc4c(O)c(Cl)ccc4c3c2=O)on1 [Example 60, 7-chloro-2-(2-cyclopropyl-4,5-difluorophenyl)-8-hydroxy-3-((3-methylisoxazol-5-yl)methyl)benzo[4,5]thieno[2,3-d]pyrimidin-4(3H)-one]",< 100,
"O=c1c2c(nc(-c3ccc(-c4ncco4)cc3C3CC3)n1Cc1cnco1)sc1c(O)c(Cl)ccc12 [Example 110, 7-chloro-2-(2-cyclopropyl-4-(oxazol-2-yl)phenyl)-8-hydroxy-3-(oxazol-5-ylmethyl)benzo[4,5]thieno[2,3-d]pyrimidin-4(3H)-one]",< 100,
"COc1ccc(-c2nc3sc4c(O)c(C#N)ccc4c3c(=O)n2Cc2cnco2)c(C2CC2)c1 [Example 33, 2-(2-cyclopropyl-4-methoxyphenyl)-8-hydroxy-3-(oxazol-5-ylmethyl)-4-oxo-3,4-dihydrobenzo[4,5]thieno[2,3-d]pyrimidine-7-carbonitrile]",500 to 1000,
CS(=O)(=O)c1ccc(-c2nc3sc4c(O)c(Cl)ccc4c3c(=O)n2Cc2cc(C(F)(F)F)no2)c(C2CC2)c1 [Example 81],< 100,
"COc1ccc(-c2nc3sc4c(O)c(Cl)ccc4c3c(=O)n2Cc2cnc(C)o2)c(C2CC2)c1 [Example 59, 7-chloro-2-(2-cyclopropyl-4-methoxyphenyl)-8-hydroxy-3-((2-methyloxazol-5-yl)methyl)benzo[4,5]thieno[2,3-d]pyrimidin-4(3H)-one]",< 100,
COc1ccc(-c2nc3sc4c(O)c(Cl)cc(Br)c4c3c(=O)n2Cc2cnco2)c(C2CC2)c1 [Example 222],100 to 500,
O=c1c2c(nc(-c3cc(F)c(F)cc3C3CC3)n1Cc1cnc(C(F)(F)F)nc1)sc1c(O)ccc(F)c12 [Example 184],< 100,
COc1ccc(-c2nc3sc4c(O)c(Cl)ccc4c3c(=O)n2Cc2cncc(C(F)(F)F)c2)c(C2CC2)c1 [Example 154],< 100,
COCCn1cc(Cn2c(-c3ccc(OC)cc3C3CC3)nc3sc4c(O)c(Cl)ccc4c3c2=O)cn1 [Example 95],< 100,
"COc1cc(C2CC2)c(-c2nc3sc4c(O)c(Cl)ccc4c3c(=O)n2Cc2cnco2)cc1Br [Example 104, 2-(5-bromo-2-cyclopropyl-4-methoxyphenyl)-7-chloro-8-hydroxy-3-(oxazol-5-ylmethyl)benzo[4,5]thieno[2,3-d]pyrimidin-4(3H)-one]",< 100,
"COc1ccc(-c2nc3sc4c(O)c(Cl)cc(F)c4c3c(=O)n2Cc2cnco2)c(C2CC2)c1 [Example 218, 7-chloro-2-(2-cyclopropyl-4-methoxyphenyl)-5-fluoro-8-hydroxy-3-(oxazol-5-ylmethyl)benzo[4,5]thieno[2,3-d]pyrimidin-4(3H)-one]",< 100,

SMILES,IC50 [1] [nM],IC50 [2] [nM]
COc1ccc(-c2nc3sc4c(O)c(Cl)ccc4c3c(=O)n2Cc2cnco2)c(C2CCCC2)c1 [Example 121],100 to 500,
Cn1cc(Cn2c(-c3cc(F)c(C(F)F)cc3C3CC3)nc3sc4c(O)c(Cl)ccc4c3c2=O)ccc1=O [Example 187],< 100,
N#Cc1ccc(-c2nc3sc4c(O)c(Cl)ccc4c3c(=O)n2Cc2cnc(C(F)(F)F)nc2)c(C2CC2)c1 [Example 114],< 100,
"CS(=O)(=O)c1ccc(-c2nc3sc4c(O)c(Cl)ccc4c3c(=O)n2Cc2ccc(C(F)(F)F)nc2)c(C2CC2)c1 [Example 69, 7-chloro-2-(2-cyclopropyl-4-(methylsulfonyl)phenyl)-8-hydroxy-3-((6-(trifluoromethyl)pyridin-3-yl)methyl)benzo[4,5]thieno[2,3-d]pyrimidin-4(3H)-one]",< 100,
COc1ccc(-c2nc3sc4c(O)c(Cl)ccc4c3c(=O)n2Cc2cnc(C)s2)c(C2CC2)c1 [Example 192],< 100,
O=c1c2c(nc(-c3ccc(C(F)F)cc3C3CC3)n1Cc1cnco1)sc1c(O)c(Cl)ccc12 [Example 159],< 100,
"O=c1c2c(nc(-c3ccc(C(F)(F)F)nc3C3CC3)n1Cc1cnc(C(F)(F)F)nc1)sc1c(O)c(Cl)ccc12 [Example 67, 7-chloro-2-(2-cyclopropyl-6-(trifluoromethyl)pyridin-3-yl)-8-hydroxy-3-((2-(trifluoromethyl)pyrimidin-5-yl)methyl)benzo[4,5]thieno[2,3-d]pyrimidin-4(3H)-one]",< 100,
COc1ccc(-c2nc3sc4c(O)c(Cl)ccc4c3c(=O)n2Cc2cccnc2)c(C2CC2)c1 [Example 152],< 100,
CS(=O)(=O)Nc1ccc(-c2nc3sc4c(O)c(Cl)ccc4c3c(=O)n2Cc2cnc(C(F)(F)F)nc2)c(C2CC2)c1 [Example 185],< 100,
COc1ccc(-c2nc3sc4c(O)c(Cl)ccc4c3c(=O)n2Cc2ccnc(OC)c2)c(C2CC2)c1 [Example 156],< 100,
COc1cc(C2CC2)c(-c2nc3sc4c(O)c(Cl)ccc4c3c(=O)n2Cc2cnco2)cn1 [Example 203],100 to 500,
N#Cc1ccc(-c2nc3sc4c(O)c(Cl)ccc4c3c(=O)n2Cc2cccnc2)c(C2CC2)c1 [Example 170],< 100,
"COc1ccc(-c2nc3sc4c(O)c(Cl)ccc4c3c(=O)n2CC2=NCCO2)c(C2CC2)c1 [Example 54, 7-chloro-2-(2-cyclopropyl-4-methoxyphenyl)-3-((4,5-dihydrooxazol-2-yl)methyl)-8-hydroxybenzo[4,5]thieno[2,3-d]pyrimidin-4(3H)-one]",100 to 500,
"O=c1c2c(nc(-c3cc(F)c(F)cc3C3CC3)n1Cc1cc(C(F)F)no1)sc1c(O)c(Cl)ccc12 [Example 65, 7-chloro-2-(2-cyclopropyl-4,5-difluorophenyl)-3-((3-(difluoromethyl)isoxazol-5-yl)methyl)-8-hydroxybenzo[4,5]thieno[2,3-d]pyrimidin-4(3H)-one]",< 100,
COc1ccc(-c2nc3sc4c(O)c(Cl)ccc4c3c(=O)n2Cc2nncs2)c(C2CC2)c1 [Example 202],< 100,
CCc1ncc(Cn2c(-c3cc(F)c(F)cc3C3CC3)nc3sc4c(O)c(Cl)ccc4c3c2=O)s1 [Example 205],< 100,
N#Cc1cnc(-c2nc3sc4c(O)c(Cl)ccc4c3c(=O)n2Cc2cc(C(F)(F)F)no2)c(C2CC2)c1 [Example 115],< 100,

# — patent US20250154163A1, “Pyrimidinone-Containing 17-Beta-Hydroxysteroid Dehydrogenase Type 13 Inhibitors” (ENANTA PHARMACEUTICALS, INC., priority 2023, published 2025)
